From ChEMBL document CHEMBL4825724, “Synthesis and biological evaluation of platensic alcohol as an adamantane surrogate in antitumor drug lead adaphostin” (Bioorg Med Chem Lett, 2021)
In brackets after ≈: the same amount, converted by molar mass. Activity calls are given as the source filed them. No cut-off for these calls is given here.

How the values were obtained:
Staphylococcus aureus = test: Antibacterial activity against methicillin-resistant Staphylococcus aureus; assay type: functional
Jurkat [1] = test: Induction of ROS generation in human Jurkat cells assessed as increase in intracellular ROS level measured after 4 hrs in presence of vorinostat; assay type: functional, cell-based
Jurkat [2] = test: Cytotoxicity against human Jurkat cells assessed as cell growth inhibition measured after 72 hrs by CCK8 assay; assay type: functional, cell-based
Jurkat [3] = test: Induction of ROS generation in human Jurkat cells at 1 uM measured after 2 hrs by DCFH-DA staining based flourescence assay relative to H2O2; assay type: functional, cell-based
Caco-2 = test: Cytotoxicity against human Caco-2 cells assessed as cell growth inhibition measured after 72 hrs by CCK8 assay; assay type: functional, cell-based; settings: Caco-2, 72 h
Jurkat [4] = test: Antagonistic cytotoxicity against human Jurkat cells assessed as decrease in cell viability at 0.1 to 25 uM measured after 72 hrs in presence of vorinostat; assay type: functional, cell-based; settings: dose 0.1-25 µM
Jurkat [5] = test: Induction of ROS generation in human Jurkat cells at 5 uM measured after 4 hrs by DCFH-DA staining based flourescence assay relative to H2O2; assay type: functional, cell-based
A549 = test: Cytotoxicity against human A549 cells assessed as cell growth inhibition measured after 72 hrs by CCK8 assay; assay type: functional, cell-based; settings: A549, 72 h
[6] = Cytotoxicity against human KPL-4 cells assessed as cell growth inhibition measured after 72 hrs by CCK8 assay; assay type: functional, cell-based; settings: KPL4, 72 h
[7] = Half life in human serum incubated up to 24 hrs by HPLC analysis; assay type: ADME, cell-free

In the case of `C[C@@]1(CCC(=O)Nc2c(O)ccc(C(=O)O)c2O)C(=O)C=CC23CC4CC(CC(C4)C21)C3` (stereo not given in full), the MIC (Staphylococcus aureus) is reported as 1.3 µg/mL (≈ 2.96 µM).

For `CC12CC34CC[C@H](OC(=O)c5ccc(NCc6cc(O)ccc6O)cc5)[C@@](C)(CCCOC(=O)c5ccc(NCc6cc(O)ccc6O)cc5)C3C(CC1C4)O2` (stereo not given in full), the Activity (Jurkat [1]) was “Active”, the IC50 (Jurkat [2]) was 5 µM and the Activity (Jurkat [3]) was “Active”. For the same compound, the IC50 (Caco-2) was 7 µM, the Activity (Jurkat [4]) was “Active” and the Activity (Jurkat [5]) was “Active”. The IC50 (A549) was 9.6 µM, the IC50 [6] was 7.7 µM and the half-life [7] was 12 h.

`CC12CC34CC[C@H](O)[C@@](C)(CCCO)C3C(CC1C4)O2` (stereo not given in full) gave an IC50 (Jurkat [2]) of 7.3 µM, an IC50 (Caco-2) of 37.5 µM and an IC50 (A549) of 35.9 µM. For the same compound, the IC50 [6] was 2.7 µM and the half-life [7] was 5 h.

Compound `O=C(O)c1ccc(NCc2cc(O)ccc2O)cc1` has an IC50 (Jurkat [2]) of 20.4 µM, an IC50 (Caco-2) of 49.8 µM and an IC50 (A549) of over 100 µM. For the same compound, the IC50 [6] was over 100 µM.

Compound `CC12CC34C=CC(=O)[C@@](C)(CCC(=O)NNC(=O)c5ccc(NCc6cc(O)ccc6O)cc5)C3C(CC1C4)O2` (stereo not given in full) has an IC50 (Jurkat [2]) of over 100 µM, an IC50 (Caco-2) of 65.2 µM and an IC50 (A549) of over 100 µM. It also gave an IC50 [6] of over 100 µM.

Compound `COC(=O)c1ccc(NCc2cc(O)ccc2O)cc1` has an IC50 (Jurkat [2]) of 13.1 µM, an IC50 (Caco-2) of 15.1 µM and an IC50 (A549) of 23.2 µM. The IC50 [6] was 15.6 µM and the half-life [7] was 3 h.

For `O=C(OC12CC3CC(CC(C3)C1)C2)c1ccc(NCc2cc(O)ccc2O)cc1`, the IC50 (Jurkat [2]) was 3.1 µM, the Activity (Jurkat [3]) was “Active” and the IC50 (Caco-2) was 8 µM. For the same compound, the Activity (Jurkat [4]) was “inactive”, the IC50 (A549) was 20.1 µM and the IC50 [6] was 4.6 µM. For the same compound, the half-life [7] was 12 h.

`C[C@]12C[C@@]34C=CC(=O)[C@@](C)(CCC(=O)Nc5c(O)ccc(C(=O)O)c5O)[C@@H]3[C@H](C[C@@H]1C4)O2` showed an MIC (Staphylococcus aureus) of 0.2 µg/mL (≈ 0.453 µM).

Compound `O=C(NNC(=O)C12CC3CC(CC(C3)C1)C2)c1ccc(NCc2cc(O)ccc2O)cc1` has an IC50 (Jurkat [2]) of 16 µM, an IC50 (Caco-2) of over 100 µM and an IC50 (A549) of over 100 µM. The IC50 [6] was over 100 µM.
